Test [1] deals with Staphylococcus aureus (S. aureus) 11540 strain. In words: Standard microdilution assay, MIC against S. aureus 11540. To be noted: S. aureus 11540 strain, standard microdilution assay, cutoff 16 micrograms/mL, read-out: MIC S. aureus. Type of test: cell-based. An outline of the steps:
(§1)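 Scoring as + or − used a 16 micrograms/mL cutoff on minimum inhibitory concentrations. These came from CLSI-standard microdilution, quality-controlled with reference strains tested in the same run.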

The test system of test [2] is Eschericia coli (E. coli) strain ATCC25922. Description: Standard microdilution assay, MIC against E. coli ATCC25922. Type of test: cell-based. To be noted: Escherichia coli; E. coli strain ATCC25922, standard microdilution assay; cutoff 16 micrograms/mL; read-out: MIC E. Coli. The method in brief: as §1
In general terms: In broth dilution the organism is exposed to a series of concentrations in liquid medium.

Regarding `C[C@H](N)CCCc1cc(OC(F)(F)F)c(F)c(-c2cc3cn(-c4ccc([C@@H]5COC[C@H](CCNC(=N)N)N5)cc4)c(=O)nc3[nH]2)c1` [Compound 357], the MIC in test [1] and in test [2] was less than 16 µg/mL throughout.
As to `C[C@H](N)CCCc1cc(Cl)c(F)c(-c2cc3cn(-c4ccc([C@H]5CCC[C@H](CCNC6=NCCN6)N5)cc4)c(=O)nc3[nH]2)c1` [Compound 541], the MIC in test [1] and in test [2] was less than 16 µg/mL each time.
On to `COC[C@@H](CCN[C@@H](C)c1ccc(-n2cc3cc(-c4cc(CCC[C@H](C)N)cc(Cl)c4F)[nH]c3nc2=O)cc1)NC(=N)N` [Compound 330], for which the MIC in test [1] and in test [2] was less than 16 µg/mL each time.
Consider `CCOP(=O)(OCC)OC[C@@H]1COC[C@H](c2ccc(-n3cc4cc(-c5cc(CCC[C@H](C)N)cc(Cl)c5F)[nH]c4nc3=O)cc2)N1` [Compound 468], for which the MIC (as a rule, the lowest concentration found to suppress growth) in test [1] is less than 16 µg/mL; in test [2] it was greater than 16 µg/mL.
Taken in the same sequence, the figures for `C[C@H](N)CCCc1cc(Cl)c(F)c(-c2cc3cn(-c4ccc(CN[C@@H](CCNC(=N)N)CCc5nccs5)cc4)c(=O)nc3[nH]2)c1` [Compound 519] were less than 16 µg/mL and less than 16 µg/mL.
Regarding `C[C@H](NCCCNC(=N)N)c1ccc(-n2cc3cc(-c4cc([C@H]5CC[C@@H](CN)O5)cc(Cl)c4F)[nH]c3nc2=O)cc1` [Compound 445], the MIC in test [1] and in test [2] was less than 16 µg/mL in each case.
Turning to `C=C[C@@H](C[C@H](C)NCc1ccc(-n2cc3cc(-c4cc(CCC[C@H](C)N)cc(OC(F)(F)F)c4F)[nH]c3nc2=O)cc1)NC(=N)N` [Compound 337], the MIC in test [1] and in test [2] was less than 16 µg/mL in each case.
On to `C[C@H](N)CCCc1cc(Cl)c(F)c(-c2cc3cn(-c4ccc([C@@H]5CCO[C@@H](CCCN)C5)cc4)c(=O)nc3[nH]2)c1` [Compound 522], for which the MIC in test [1] and in test [2] was less than 16 µg/mL in each case.
As to `N=C(NC1CCCC1)c1ccc(-n2cc3cc(-c4ccc(S(=O)(=O)NC5CCNCC5)cc4)[nH]c3nc2=O)cc1` [Compound 504], the MIC in test [1] and in test [2] was greater than 16 µg/mL each time.
With `C[C@H](N)CCCc1cc(OC(F)(F)F)c(F)c(-c2cc3cn(-c4ccc(CN[C@@H](CN)CCNC(=N)N)cc4)c(=O)nc3[nH]2)c1` [Compound 380], the MIC in test [1] and in test [2] was less than 16 µg/mL each time.
`C[C@H](N)CCCc1cc(Cl)c(F)c(-c2cc3cn(-c4ccc([C@@H]5CCC[C@@H](Cc6cnc(N)s6)N5)cc4)c(=O)nc3[nH]2)c1` [Compound 538]: the MIC in test [1] was less than 16 µg/mL; in test [2], greater than 16 µg/mL.
Taken in the same sequence, the figures for `C[C@H](N)CCCc1cc(Cl)c(F)c(-c2cc3cn(-c4ccc([C@@H]5CCC[C@@H](CCc6ncc[nH]6)N5)cc4)c(=O)nc3[nH]2)c1` [Compound 508] were less than 16 µg/mL and less than 16 µg/mL.
Taken in the same sequence, the figures for `C=C[C@H](C[C@H](C)NCc1ccc(-n2cc3cc(-c4cc(CCC[C@H](C)N)cc(OC(F)(F)F)c4F)[nH]c3nc2=O)cc1)NC(=N)N` [Compound 339] were less than 16 µg/mL and less than 16 µg/mL.
Take `C[C@H](N)CCCc1cc(Cl)c(F)c(-c2cc3cn(-c4ccc([C@@H]5CCC[C@@H](CCC(=O)O)N5)cc4)c(=O)nc3[nH]2)c1` [Compound 514]: the MIC in test [1] and in test [2] was greater than 16 µg/mL throughout.
Turning to `C[C@H](N)CCCc1cc(-c2cc3cn(-c4ccc([C@@H]5CCC[C@@H](CCNC(=N)N)N5)cc4)c(=O)nc3[nH]2)cc(C(F)(F)F)c1` [Compound 486], the MIC in test [1] and in test [2] was less than 16 µg/mL each time.
For the compound `C[C@H](N)CCCc1cc(OC(F)(F)F)c(F)c(-c2cc3cn(-c4ccc(C5=NCCCN5)cc4)c(=O)nc3[nH]2)c1` [Compound 565], the MIC in test [1] and in test [2] was less than 16 µg/mL in each case.
For the compound `CCOP(=O)(OCC)OC[C@H](N)CCCc1cc(Cl)c(F)c(-c2cc3cn(-c4ccc([C@H](C)NCCCNC(=N)N)cc4)c(=O)nc3[nH]2)c1` [Compound 467], the MIC in test [1] and in test [2] was less than 16 µg/mL each time.
Turning to `C[C@H](N)CCCc1cc(Cl)c(F)c(-c2cc3cn(-c4ccc([C@@H]5CCC[C@@H](CNC(=N)N)N5)cc4)c(=O)nc3[nH]2)c1` [Compound 540], the MIC in test [1] and in test [2] was less than 16 µg/mL throughout.
Regarding `C[C@H](N)CCCc1cc(Cl)c(F)c(-c2cc3cn(-c4ccc(CN[C@@H](C)C[C@H](CO)NC(=N)N)cc4)c(=O)nc3[nH]2)c1` [Compound 437], the MIC in test [1] and in test [2] was less than 16 µg/mL in each case.
As to `C=C[C@H](CCNC(=N)N)N[C@@H](C)c1ccc(-n2cc3cc(-c4cc(CCC[C@H](C)N)cc(Cl)c4F)[nH]c3nc2=O)cc1` [Compound 382], the MIC in test [1] and in test [2] was less than 16 µg/mL each time.
`C[C@@H](CN)CN1CC[C@@H](c2cc3cn(-c4ccc(CN5CCCNC5=N)cc4)c(=O)nc3[nH]2)C1` [Compound 574]: the MIC was greater than 16 µg/mL in test [1] and less than 16 µg/mL in test [2].
Taken in the same sequence, the figures for `C[C@H](N)CCCc1cc(Cl)c(F)c(-c2cc3cn(-c4ccc(CN[C@H](CCNC(=N)N)CNS(C)(=O)=O)cc4)c(=O)nc3[nH]2)c1` [Compound 544] were less than 16 µg/mL and less than 16 µg/mL.
The corresponding values for `C[C@H](N)CCCc1cc(Cl)c(F)c(-c2cc3cn(-c4ccc([C@@H](N)CCCNC(=N)N)cc4)c(=O)nc3[nH]2)c1` [Compound 412] are less than 16 µg/mL and less than 16 µg/mL.
On to `COC[C@H](CCNC(=N)N)N[C@@H](C)c1ccc(-n2cc3cc(-c4cc(CCC[C@H](C)N)cc(Cl)c4F)[nH]c3nc2=O)cc1` [Compound 355], for which the MIC in test [1] and in test [2] was less than 16 µg/mL in each case.
With `C[C@H](N)CCCc1cc(Cl)c(F)c(-c2cc3cn(-c4ccc([C@H](C)NCC[C@@H](Cn5cc(CN)nn5)NC(=N)N)cc4)c(=O)nc3[nH]2)c1` [Compound 323], the MIC in test [1] and in test [2] was less than 16 µg/mL throughout.
On to `C[C@H](N)CCCc1cc(Cl)c(F)c(-c2cc3cn(-c4ccc([C@@H]5CCC[C@@H](CCN)N5)cc4)c(=O)nc3[nH]2)c1` [Compound 421], for which the MIC in test [1] and in test [2] was less than 16 µg/mL throughout.
`C[C@H](N)CCCc1cc(Cl)c(F)c(-c2cc3cn(-c4ccc(CN5CC[C@H](CN6CCOCC6)NC5=N)cc4)c(=O)nc3[nH]2)c1` [Compound 418]: the MIC in test [1] and in test [2] was less than 16 µg/mL in each case.
For `N=C(N)NCC[C@H]1CC[C@H](c2ccc(-n3cc4cc(-c5cc(CCC[C@@H](N)CO)cc(Cl)c5F)[nH]c4nc3=O)cc2)N1` [Compound 482], the MIC in test [1] and in test [2] was less than 16 µg/mL in each case.
For the compound `C[C@H](N)CCCc1cc(Cl)c(F)c(-c2cc3cn(-c4ccc([C@H]5COC[C@@H](c6c[nH]nn6)N5)cc4)c(=O)nc3[nH]2)c1` [Compound 391], the minimal inhibitory concentration (MIC) in test [1] and in test [2] was greater than 16 µg/mL each time.
With `C[C@H](N)CCCc1cc(Cl)c(F)c(-c2cc3cn(-c4ccc(C(=N)NCCCN)cc4)c(=O)nc3[nH]2)c1` [Compound 460], the MIC in test [1] and in test [2] was less than 16 µg/mL each time.
For `C[C@H](N)CCCc1cc(Cl)c(F)c(-c2cc3cn(-c4ccc([C@H]5CC[C@H](CCNC(=N)N)N5)cc4)c(=O)nc3[nH]2)c1` [Compound 349], the minimum inhibitory concentration (MIC) in test [1] and in test [2] was less than 16 µg/mL in each case.
Take `C[C@H](N)CCCc1cc(Cl)c(F)c(-c2cc3cn(-c4ccc([C@@H]5CCC[C@@H](Cc6cnn[nH]6)N5)cc4)c(=O)nc3[nH]2)c1` [Compound 489]: the MIC in test [1] and in test [2] was greater than 16 µg/mL throughout.
With `C[C@H](N)CCCc1cc(Cl)c(F)c(-c2cc3cn(-c4ccc([C@H](N)CCCNC(=N)N)cc4)c(=O)nc3[nH]2)c1` [Compound 456], the MIC in test [1] and in test [2] was less than 16 µg/mL each time.
Consider `C=C[C@@H](CCNC(=N)N)NCc1ccc(-n2cc3cc(-c4cc(CCC[C@H](C)N)cc(Cl)c4F)[nH]c3nc2=O)cc1` [Compound 387], for which the MIC in test [1] and in test [2] was less than 16 µg/mL in each case.
Turning to `C=C[C@@H](CCNC(=N)N)NCc1ccc(-n2cc3cc(-c4cc(CCC[C@@H](N)CO)cc(Cl)c4F)[nH]c3nc2=O)cc1` [Compound 395], the MIC in test [1] and in test [2] was less than 16 µg/mL throughout.
`COC[C@@H](CCNC(=N)N)NCc1ccc(-n2cc3cc(-c4cc(CCC[C@H](C)N)cc(Cl)c4F)[nH]c3nc2=O)cc1` [Compound 340]: the MIC in test [1] and in test [2] was less than 16 µg/mL in each case.
Regarding `C[C@H](N)CCCc1cc(Cl)c(F)c(-c2cc3cn(-c4ccc([C@@H]5CCC[C@@H](CCn6cccn6)N5)cc4)c(=O)nc3[nH]2)c1` [Compound 530], the MIC in test [1] and in test [2] was greater than 16 µg/mL throughout.
With `C[C@H](N)CCCc1cc(Cl)c(F)c(-c2cc3cn(-c4ccc([C@H](N)CCN)cc4)c(=O)nc3[nH]2)c1` [Compound 440], the MIC in test [1] and in test [2] was less than 16 µg/mL throughout.
On to `C[C@H](N)CCCc1cc(Cl)c(F)c(-c2cc3cn(-c4ccc([C@@H]5CCC[C@@H](CCNC(=N)N)N5C)cc4)c(=O)nc3[nH]2)c1` [Compound 527], for which the MIC in test [1] and in test [2] was less than 16 µg/mL in each case.
As for `C[C@H](N)CCCc1cc(Cl)c(F)c(-c2cc3cn(-c4ccc(C(N)CNC(=N)N)cc4)c(=O)nc3[nH]2)c1` (some centres unmarked) [Compound 473], the MIC in test [1] and in test [2] was less than 16 µg/mL throughout.
On to `N=C(N)NCC[C@@H]1CCC[C@@H](c2ccc(-n3cc4cc(-c5ccc(S(=O)(=O)NC6CCN(C(=N)N)CC6)cc5)[nH]c4nc3=O)cc2)N1` [Compound 494], for which the MIC in test [1] and in test [2] was less than 16 µg/mL in each case.
Consider `C[C@H](N)CCCc1cc(OC(F)(F)F)c(F)c(-c2cc3cn(-c4ccc([C@@H]5CCC[C@@H](CCn6ccnn6)N5)cc4)c(=O)nc3[nH]2)c1` [Compound 479], for which the MIC in test [1] and in test [2] was greater than 16 µg/mL each time.
In the case of `C[C@H](N)CCCc1cc(Cl)c(F)c(-c2cc3cn(-c4ccc([C@@H]5CCC[C@@H](Cc6ncc(N)s6)N5)cc4)c(=O)nc3[nH]2)c1` [Compound 529], the MIC in test [1] and in test [2] was greater than 16 µg/mL throughout.
